In patent US12281080B2, “Quinoline-based compounds and methods of inhibiting CDK8/19” (University of South Carolina, priority 2018, dated 2025):
Like-named read-outs stand apart in the source and are kept apart here.

Assays:
AKT3 = AKT3 (Homo sapiens (Human), UniProt Q9Y243); test: KINOMEscan scanMAX; assay type: binding; details: 2000 nM; read-out: Percent Control
BRAF = BRAF (Homo sapiens (Human), UniProt P15056); test: KINOMEscan scanMAX; assay type: binding; details: 2000 nM; read-out: Percent Control
BRAF, sequence (P15056 whole entry): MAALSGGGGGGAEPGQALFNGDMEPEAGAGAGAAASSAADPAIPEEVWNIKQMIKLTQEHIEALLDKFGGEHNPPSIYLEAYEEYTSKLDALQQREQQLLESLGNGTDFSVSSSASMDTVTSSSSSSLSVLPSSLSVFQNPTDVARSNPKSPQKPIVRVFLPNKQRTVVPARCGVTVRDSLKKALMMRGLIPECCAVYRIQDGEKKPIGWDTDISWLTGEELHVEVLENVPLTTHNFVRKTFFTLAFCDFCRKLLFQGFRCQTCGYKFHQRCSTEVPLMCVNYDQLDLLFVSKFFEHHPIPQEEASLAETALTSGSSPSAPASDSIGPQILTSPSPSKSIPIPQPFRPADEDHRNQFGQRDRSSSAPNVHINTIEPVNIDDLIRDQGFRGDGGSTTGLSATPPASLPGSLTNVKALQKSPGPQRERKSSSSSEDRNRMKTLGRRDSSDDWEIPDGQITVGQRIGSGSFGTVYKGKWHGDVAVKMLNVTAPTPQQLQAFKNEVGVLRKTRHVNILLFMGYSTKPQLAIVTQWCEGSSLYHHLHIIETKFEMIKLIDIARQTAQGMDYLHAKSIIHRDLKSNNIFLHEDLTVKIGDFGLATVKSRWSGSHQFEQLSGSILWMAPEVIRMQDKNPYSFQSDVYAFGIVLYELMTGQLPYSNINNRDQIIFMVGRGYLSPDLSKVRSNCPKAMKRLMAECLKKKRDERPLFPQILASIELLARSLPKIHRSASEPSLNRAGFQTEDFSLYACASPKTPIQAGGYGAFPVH

CSNK2A2 = CSNK2A2 (Homo sapiens (Human), UniProt P19784); test: KINOMEscan scanMAX; assay type: binding; details: 2000 nM; read-out: Percent Control
DDR1 = DDR1 (Homo sapiens (Human), UniProt Q08345); test: KINOMEscan scanMAX; assay type: binding; details: 2000 nM; read-out: Percent Control
DDR1, sequence (Q08345 19-913): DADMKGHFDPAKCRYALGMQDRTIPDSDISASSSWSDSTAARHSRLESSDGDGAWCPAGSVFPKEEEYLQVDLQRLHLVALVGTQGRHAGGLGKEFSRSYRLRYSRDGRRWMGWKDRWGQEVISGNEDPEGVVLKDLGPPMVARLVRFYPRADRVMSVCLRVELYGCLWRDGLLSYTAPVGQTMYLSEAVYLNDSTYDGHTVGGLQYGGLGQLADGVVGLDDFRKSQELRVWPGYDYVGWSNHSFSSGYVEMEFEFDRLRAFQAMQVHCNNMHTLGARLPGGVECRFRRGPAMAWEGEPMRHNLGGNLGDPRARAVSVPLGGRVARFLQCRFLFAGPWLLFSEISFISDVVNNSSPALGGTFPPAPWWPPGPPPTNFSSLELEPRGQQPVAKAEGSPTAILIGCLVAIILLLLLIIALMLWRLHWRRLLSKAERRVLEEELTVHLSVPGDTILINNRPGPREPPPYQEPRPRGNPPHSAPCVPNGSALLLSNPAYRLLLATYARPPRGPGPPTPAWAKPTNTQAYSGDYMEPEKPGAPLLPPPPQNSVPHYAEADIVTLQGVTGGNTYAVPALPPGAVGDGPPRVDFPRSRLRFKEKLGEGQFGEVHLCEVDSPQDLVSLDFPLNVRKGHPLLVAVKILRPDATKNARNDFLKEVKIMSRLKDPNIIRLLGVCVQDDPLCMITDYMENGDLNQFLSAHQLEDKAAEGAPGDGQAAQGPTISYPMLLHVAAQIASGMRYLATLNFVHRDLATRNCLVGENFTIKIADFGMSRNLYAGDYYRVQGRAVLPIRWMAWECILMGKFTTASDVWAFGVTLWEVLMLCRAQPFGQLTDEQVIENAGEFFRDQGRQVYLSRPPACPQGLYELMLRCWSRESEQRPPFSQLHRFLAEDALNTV

FLT3(N841I) = FLT3(N841I) (Homo sapiens (Human), UniProt P36888, N841I); test: KINOMEscan scanMAX; assay type: binding; details: 2000 nM; read-out: Percent Control
FLT4 = FLT4 (Homo sapiens (Human), UniProt P35916); test: KINOMEscan scanMAX; assay type: binding; details: 2000 nM; read-out: Percent Control
INSR = INSR (Homo sapiens (Human), UniProt P06213); test: KINOMEscan scanMAX; assay type: binding; details: 2000 nM; read-out: Percent Control
INSR, sequence (P06213 28-1382): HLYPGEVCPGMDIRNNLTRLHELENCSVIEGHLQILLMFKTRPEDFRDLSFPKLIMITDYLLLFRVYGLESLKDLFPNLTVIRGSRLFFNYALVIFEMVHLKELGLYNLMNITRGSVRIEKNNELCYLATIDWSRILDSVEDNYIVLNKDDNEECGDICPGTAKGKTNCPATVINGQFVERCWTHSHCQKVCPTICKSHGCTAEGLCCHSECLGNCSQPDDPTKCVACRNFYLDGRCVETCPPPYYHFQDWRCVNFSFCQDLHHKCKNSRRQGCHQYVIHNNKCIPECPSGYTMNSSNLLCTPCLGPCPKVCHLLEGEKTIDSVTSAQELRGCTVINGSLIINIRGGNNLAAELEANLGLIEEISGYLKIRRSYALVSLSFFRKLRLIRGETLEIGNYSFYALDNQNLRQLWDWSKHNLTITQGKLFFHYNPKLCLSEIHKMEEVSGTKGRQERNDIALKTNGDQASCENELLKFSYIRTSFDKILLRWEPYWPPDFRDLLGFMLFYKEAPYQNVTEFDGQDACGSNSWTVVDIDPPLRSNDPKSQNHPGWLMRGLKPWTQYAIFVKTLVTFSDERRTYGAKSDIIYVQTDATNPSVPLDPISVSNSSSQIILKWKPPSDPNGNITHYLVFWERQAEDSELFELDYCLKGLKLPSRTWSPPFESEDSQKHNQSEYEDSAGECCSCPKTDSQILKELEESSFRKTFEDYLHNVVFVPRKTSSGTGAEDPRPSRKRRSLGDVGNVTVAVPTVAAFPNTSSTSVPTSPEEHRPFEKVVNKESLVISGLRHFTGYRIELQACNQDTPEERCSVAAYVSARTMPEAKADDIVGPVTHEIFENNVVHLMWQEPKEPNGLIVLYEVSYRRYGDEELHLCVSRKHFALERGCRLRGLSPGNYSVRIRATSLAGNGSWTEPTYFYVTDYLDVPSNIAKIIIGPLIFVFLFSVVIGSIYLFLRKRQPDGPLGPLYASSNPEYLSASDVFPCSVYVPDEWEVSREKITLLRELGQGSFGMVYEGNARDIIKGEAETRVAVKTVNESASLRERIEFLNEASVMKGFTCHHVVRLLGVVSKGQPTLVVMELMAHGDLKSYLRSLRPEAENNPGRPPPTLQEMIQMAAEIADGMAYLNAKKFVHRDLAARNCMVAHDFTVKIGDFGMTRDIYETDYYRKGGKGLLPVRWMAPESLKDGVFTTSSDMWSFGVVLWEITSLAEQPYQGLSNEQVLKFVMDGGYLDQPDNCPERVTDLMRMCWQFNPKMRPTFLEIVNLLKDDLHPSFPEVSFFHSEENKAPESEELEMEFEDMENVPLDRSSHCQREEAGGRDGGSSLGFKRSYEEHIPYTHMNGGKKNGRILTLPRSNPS

KIT(D816H) = KIT(D816H) (Homo sapiens (Human), UniProt P10721, D816H); test: KINOMEscan scanMAX; assay type: binding; details: 2000 nM; read-out: Percent Control
KIT(V559D) = KIT(V559D) (Homo sapiens (Human), UniProt P10721, V559D); test: KINOMEscan scanMAX; assay type: binding; details: 2000 nM; read-out: Percent Control
LIMK1 = LIMK1 (Homo sapiens (Human), UniProt P53667); test: KINOMEscan scanMAX; assay type: binding; details: 2000 nM; read-out: Percent Control
MAPKAPK2 = MAPKAPK2 (Homo sapiens (Human), UniProt P49137); test: KINOMEscan scanMAX; assay type: binding; details: 2000 nM; read-out: Percent Control
NEK3 = NEK3 (Homo sapiens (Human), UniProt P51956); test: KINOMEscan scanMAX; assay type: binding; details: 2000 nM; read-out: Percent Control
PFTK1 (CDK14) = PFTK1 (CDK14) (Homo sapiens (Human), UniProt O94921); test: KINOMEscan scanMAX; assay type: binding; details: 2000 nM; read-out: Percent Control
PFTK1 (CDK14), sequence (O94921 whole entry): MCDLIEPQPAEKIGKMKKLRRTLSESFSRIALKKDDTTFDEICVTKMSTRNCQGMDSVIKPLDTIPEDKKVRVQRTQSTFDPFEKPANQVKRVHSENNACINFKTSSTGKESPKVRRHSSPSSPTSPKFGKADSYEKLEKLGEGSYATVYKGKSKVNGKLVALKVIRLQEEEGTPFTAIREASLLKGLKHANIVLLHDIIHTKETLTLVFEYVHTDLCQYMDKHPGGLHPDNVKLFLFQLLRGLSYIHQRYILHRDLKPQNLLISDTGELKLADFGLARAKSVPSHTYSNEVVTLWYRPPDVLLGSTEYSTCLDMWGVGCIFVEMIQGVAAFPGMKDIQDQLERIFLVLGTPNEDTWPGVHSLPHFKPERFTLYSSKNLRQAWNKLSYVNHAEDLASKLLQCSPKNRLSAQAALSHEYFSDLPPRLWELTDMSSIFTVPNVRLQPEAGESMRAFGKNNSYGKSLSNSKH

PIM3 = PIM3 (Homo sapiens (Human), UniProt Q86V86); test: KINOMEscan scanMAX; assay type: binding; details: 2000 nM; read-out: Percent Control
PRKCH = PRKCH (Homo sapiens (Human), UniProt P24723); test: KINOMEscan scanMAX; assay type: binding; details: 2000 nM; read-out: Percent Control
PRKCH, sequence (P24723 whole entry): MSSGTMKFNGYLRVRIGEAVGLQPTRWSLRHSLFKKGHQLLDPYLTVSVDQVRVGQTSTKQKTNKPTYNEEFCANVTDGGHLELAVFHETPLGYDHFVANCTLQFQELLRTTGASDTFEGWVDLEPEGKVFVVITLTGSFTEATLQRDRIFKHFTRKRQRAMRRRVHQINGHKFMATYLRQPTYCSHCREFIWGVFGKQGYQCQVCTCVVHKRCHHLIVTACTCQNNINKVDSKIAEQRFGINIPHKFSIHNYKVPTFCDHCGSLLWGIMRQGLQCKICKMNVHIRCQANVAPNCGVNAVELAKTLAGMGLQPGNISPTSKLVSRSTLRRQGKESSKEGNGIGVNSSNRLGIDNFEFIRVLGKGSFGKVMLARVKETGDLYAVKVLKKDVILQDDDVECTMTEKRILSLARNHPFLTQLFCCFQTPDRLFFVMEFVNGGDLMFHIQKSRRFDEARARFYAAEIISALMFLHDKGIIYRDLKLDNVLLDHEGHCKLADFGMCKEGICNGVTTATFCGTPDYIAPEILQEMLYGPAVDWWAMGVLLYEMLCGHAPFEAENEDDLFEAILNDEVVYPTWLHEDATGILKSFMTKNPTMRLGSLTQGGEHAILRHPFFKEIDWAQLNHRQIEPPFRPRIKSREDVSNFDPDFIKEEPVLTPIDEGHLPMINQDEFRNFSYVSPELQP

PRKX = PRKX (Homo sapiens (Human), UniProt P51817); test: KINOMEscan scanMAX; assay type: binding; details: 2000 nM; read-out: Percent Control
PRKX, sequence (P51817 whole entry): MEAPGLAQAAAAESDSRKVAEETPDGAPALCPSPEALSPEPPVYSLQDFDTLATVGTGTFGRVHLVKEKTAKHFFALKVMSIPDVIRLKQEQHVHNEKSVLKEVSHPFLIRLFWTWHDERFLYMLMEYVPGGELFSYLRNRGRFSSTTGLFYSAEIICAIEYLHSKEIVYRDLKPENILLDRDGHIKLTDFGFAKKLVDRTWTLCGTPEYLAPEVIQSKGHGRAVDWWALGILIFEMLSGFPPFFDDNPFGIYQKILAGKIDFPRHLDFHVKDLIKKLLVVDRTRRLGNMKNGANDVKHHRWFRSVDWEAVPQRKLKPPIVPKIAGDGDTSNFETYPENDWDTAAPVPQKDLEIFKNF

RET(V804M) = RET(V804M) (Homo sapiens (Human), UniProt P07949, V804M); test: KINOMEscan scanMAX; assay type: binding; details: 2000 nM; read-out: Percent Control
ROCK1 = ROCK1 (Homo sapiens (Human), UniProt Q13464); test: KINOMEscan scanMAX; assay type: binding; details: 2000 nM; read-out: Percent Control
[1] = biological target: RPS6KA4(Kin.Dom.2-C-terminal) (Homo sapiens (Human), UniProt O75676); test: KINOMEscan scanMAX; assay type: binding; details: 2000 nM; read-out: Percent Control
RPS6KA4(Kin.Dom.2-C-terminal), sequence (O75676 411-674): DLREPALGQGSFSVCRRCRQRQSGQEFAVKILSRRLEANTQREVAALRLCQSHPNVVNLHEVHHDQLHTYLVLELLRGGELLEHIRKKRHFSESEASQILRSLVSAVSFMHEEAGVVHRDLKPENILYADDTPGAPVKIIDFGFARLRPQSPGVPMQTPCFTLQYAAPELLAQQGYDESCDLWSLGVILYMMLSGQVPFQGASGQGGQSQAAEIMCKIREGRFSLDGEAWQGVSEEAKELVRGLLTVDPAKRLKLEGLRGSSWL

STK16 = STK16 (Homo sapiens (Human), UniProt O75716); test: KINOMEscan scanMAX; assay type: binding; details: 2000 nM; read-out: Percent Control
STK35 = STK35 (Homo sapiens (Human), UniProt Q8TDR2); test: KINOMEscan scanMAX; assay type: binding; details: 2000 nM; read-out: Percent Control
TAOK2 = TAOK2 (Homo sapiens (Human), UniProt Q9UL54); test: KINOMEscan scanMAX; assay type: binding; details: 2000 nM; read-out: Percent Control
WEE2 = WEE2 (Homo sapiens (Human), UniProt P0C1S8); test: KINOMEscan scanMAX; assay type: binding; details: 2000 nM; read-out: Percent Control
CXCL1 = test: QPCR gene expression in TNFα-treated HEK293 cells; assay type: cell-based, human; details: Homo sapiens, HEK293; range stated for all three genes
Source text: (§1) Two types of cell-based assays for CDK8/19 inhibition were used to test the efficacy of quinoline quinolone compounds described herein (FIG. 3A). The first cell-based assay, which measures the effects of CDK8/19 inhibitors on RNA levels of CDK8/19-regulated genes by quantitative reverse transcription-PCR (QPCR), is based on the ability of CDK8/19 inhibitors to suppress the induction of NFκB-inducible genes by TNFα and to inhibit basal expression of MYC in human embryonic kidney (HEK) 293 cells, as previously described. In this assay, 293 cells growing in DMEM (High-glucose) media supplemented with 10% FBS are pre-treated with the tested inhibitors or DMSO control for 1 hour and then treated with 10 ng/mL TNFα (an activator of NFκB) for 2 hours (in the presence or absence of the tested inhibitors), followed by RNA extraction and QPCR analysis of RNA expression of specific genes conducted as described (Chen et al., ibid), using housekeeping genes RPL13A and GAPDH as normalization standards. […] All the quinoline derivatives inhibited the expression of all three genes.

IL8 = test: QPCR gene expression in TNFα-treated HEK293 cells; assay type: cell-based, human; details: Homo sapiens, HEK293; range stated for all three genes
Source text: as §1

MYC = test: QPCR gene expression in TNFα-treated HEK293 cells; assay type: cell-based, human; details: Homo sapiens, HEK293; range stated for all three genes
Source text: as §1

[2] = system: CDK8/19-mediated NFκB-driven transcription; test: NFκB-dependent luciferase reporter assay in parental 293 reporter cells; assay type: cell-based, human; details: Homo sapiens
[3] = Serum and tumor PK at study endpoint, C4-2 xenografts; assay type: in vivo, mice; details: 6-7 hours post last dose, 40 mg/kg orally daily for 4 days
Protocol: CDK8/19 inhibition decreases the expression of certain androgen-receptor (AR) inducible genes including PSA, the most common marker of prostate cancer, and the growth of castration-refractory prostate cancers (CRPC). The in vivo effects of Senexin C on PSA expression by C4-2 cells were analyzed after treatment of male NcrNU mice bearing C4-2 xenografts (grouped based on tumor sizes) for 4 days at 40 mg/kg administered orally daily.

MV4-11 cells = test: MV4-11-Luc proliferation assay (BLI); assay type: cell-based; details: Homo sapiens, MV4-11, 168 h; 7 days
Protocol: The anti-leukemic activity was evaluated with a MV4-11 assay. The population of MV4-11 cells, which depend on CDK8/19 for their proliferation, was made to express Luciferase and ZsGreen by lenvtiral infection with pHIV-Luc-ZsGreen, to enable leukemia growth analysis by bioluminescence imaging (BLI). The initial Luciferase-ZsGreen transduced cell population was sorted for ZsGreen positivity with fluorescence activated cell sorting. The MV4-11 assay was performed in 96-well plates by treating the MV4-11-Luc cells with testing compounds at different concentrations for 7 days, followed by BLI to quantify the effects of test articles on cell proliferation.

With `CN1CCN(C(=O)c2ccc3cc(CCNc4ccnc5ccc(C#N)cc45)ccc3c2)CC1` [compound 6148, 4-((2-(6-(4-methylpiperazine-1-carbonyl)naphthalen-2-yl)ethyl)amino)quinoline-6-carbonitrile] the remaining binding at 2 µM (AKT3) was 100%, the remaining binding at 2 µM (BRAF) was 84% and the remaining binding at 2 µM (CSNK2A2) was 64%. For the same molecule, the remaining binding at 2 µM (DDR1) was 100%, the remaining binding at 2 µM (FLT3(N841I)) was 100% and the remaining binding at 2 µM (FLT4) was 97%. It also gave a remaining binding at 2 µM (INSR) of 93%, a remaining binding at 2 µM (KIT(D816H)) of 57% and a remaining binding at 2 µM (KIT(V559D)) of 95%. The remaining binding at 2 µM (LIMK1) was 95%, the remaining binding at 2 µM (MAPKAPK2) was 91% and the remaining binding at 2 µM (NEK3) was 60%. The remaining binding at 2 µM (PFTK1 (CDK14)) was 98%, the remaining binding at 2 µM (PIM3) was 96% and the remaining binding at 2 µM (PRKCH) was 91%. It also gave a remaining binding at 2 µM (PRKX) of 100%, a remaining binding at 2 µM (RET(V804M)) of 91% and a remaining binding at 2 µM (ROCK1) of 52%. It also gave a remaining binding at 2 µM [1] of 62%, a remaining binding at 2 µM (STK16) of 71% and a remaining binding at 2 µM (STK35) of 100%. The remaining binding at 2 µM (TAOK2) was 77%, the remaining binding at 2 µM (WEE2) was 95% and the IC50 (CXCL1) was 25 to 35 nM. For the same molecule, the IC50 (IL8) was 25 to 35 nM, the IC50 (MYC) was 25 to 35 nM and the IC50 ([2]; 293/NFkB-luc, read-out: IC50 (293-NFKB-Luc)) was 55 nM. For the same molecule, the IC50 ([2]; HEK293, parental 293-derived reporter cell line, read-out: HEK293 NFKB CDK8 Reporter IC50) was 65 nM, the “Drug concentration in tumor tissues vs serum” value [3] was “higher Senexin C drug concentration in tumor tissues” and the IC50 (MV4-11 cells) was 117 nM.
